Results from patent US12083227B2, “Solid pharmaceutical formulations for treating endometriosis, uterine fibroids, polycystic ovary syndrome or adenomyosis” (priority 2017, dated 2024).

Legend:
[1] = drug interaction studies: elagolix in the presence of co-administered drug; type: in vivo, human; conditions: for AUC Ratio (co-administration vs. elagolix alone) / Cmax Ratio (co-administration vs. elagolix alone): elagolix 150 mg single dose
Procedure: Drug interaction studies were performed with elagolix and other drugs that are likely to be co-administered and with drugs commonly used as probes for pharmacokinetic interactions.

[2] = pharmacokinetic properties of elagolix in healthy subjects; type: in vivo, human; conditions: minor pathways include CYP2D6, CYP2C8 and UGTs
[3] = tested on: fertility and reproductive organs of rats; assay: fertility study and repeat-dose study in rats; type: in vivo, rat
Source text: Based on pharmacologic actions of elagolix in humans a reversible effect on fertility may be expected in women.

tumors in mouse = assay: 2-year carcinogenicity study in mice; type: in vivo; conditions: any dose
[4] = molecular target: T1, organic anion transporting polypeptide (OATP)1B1 (Homo sapiens, UniProt Q9Y6L6); assay: substrate status: OATP1B1
T1 sequence (Q9Y6L6 1-691): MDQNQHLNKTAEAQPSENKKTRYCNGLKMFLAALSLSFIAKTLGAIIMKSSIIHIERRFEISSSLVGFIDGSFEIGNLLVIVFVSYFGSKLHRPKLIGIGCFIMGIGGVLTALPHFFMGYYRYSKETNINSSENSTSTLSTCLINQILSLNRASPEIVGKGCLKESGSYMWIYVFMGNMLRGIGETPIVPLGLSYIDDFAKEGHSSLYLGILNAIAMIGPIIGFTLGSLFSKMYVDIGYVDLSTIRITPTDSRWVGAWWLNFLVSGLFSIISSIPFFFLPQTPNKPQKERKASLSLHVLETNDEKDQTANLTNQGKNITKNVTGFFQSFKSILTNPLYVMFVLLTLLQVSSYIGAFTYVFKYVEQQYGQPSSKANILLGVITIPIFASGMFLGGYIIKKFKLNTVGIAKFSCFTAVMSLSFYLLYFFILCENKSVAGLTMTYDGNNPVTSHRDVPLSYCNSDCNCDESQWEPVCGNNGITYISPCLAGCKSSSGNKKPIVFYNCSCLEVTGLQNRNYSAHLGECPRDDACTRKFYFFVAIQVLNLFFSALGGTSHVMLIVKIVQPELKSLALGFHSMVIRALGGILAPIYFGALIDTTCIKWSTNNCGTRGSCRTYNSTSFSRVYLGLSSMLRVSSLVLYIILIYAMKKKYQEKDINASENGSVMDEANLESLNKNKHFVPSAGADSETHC
Source text: Elagolix is a substrate of CYP3A, P-gp, and organic anion transporting polypeptide (OATP)1B1. Clinically meaningful interactions are not expected when elagolix is co-administered with drugs that inhibit CYP3A or P-gp.

[5] = tested on: endometriosis with associated pain in premenopausal women; assay: Study EM-I (placebo-controlled) and its extension; type: in vivo, human; conditions: Month 6 and Month 12
Source text: Each placebo-controlled study assessed the reduction in endometriosis-associated pain over 6 months of treatment. More than 75 percent of women who completed Study EM-I and EM-II enrolled in the extension studies for an additional 6 month treatment period. Subjects were followed for up to 12 months post-treatment. The co-primary efficacy endpoints were the proportion of responders for dysmenorrhea and pelvic pain not related to menses (also known as non-menstrual pelvic pain [NMPP]) at Month 3 compared to placebo. The primary analysis independently evaluated these endpoints using a daily diary that asked patients to assess their pain and its impact on their daily activities, over the previous 24 hours. […] Women were defined as responders if they experienced clinically meaningful reduction in dysmenorrhea and/or NMPP with no increased analgesic use for endometriosis associated pain. Dyspareunia was evaluated as a secondary endpoint using the Daily Endometriosis Pain Impact Scale. Endometrial biopsies were performed in subjects in Study EM-I and its extension at Month 6 and Month 12.

women with endometriosis = assay: Phase 3 studies EM-I and EM-II with extension studies EM-III and EM-IV (pooled efficacy, pharmacodynamics, safety); type: in vivo, human; conditions: for Depressed Mood, depression, depressive symptoms and or tearfulness: Placebo 17 (2.3); for Mood altered, mood swings: Placebo 25 (3.4); for Completed Suicide: EM-1 and EM-2; for patients with a Z-score below the normal lower bound of −2.0: following 12 months of treatment
Source text: Each placebo-controlled study assessed the reduction in endometriosis-associated pain over 6 months of treatment. More than 75 percent of women who completed Study EM-I and EM-II enrolled in the extension studies for an additional 6 month treatment period. Subjects were followed for up to 12 months post-treatment. Women in these studies also provided a daily self-assessment of their endometriosis pain using the Numeric Rating Scale (NRS), on a scale ranging from 0 (no pain) to 10 (worst pain ever). […] The effects of elagolix on menstrual bleeding were evaluated for up to 12 months using an electronic daily diary where subjects classified their flow of menstrual bleeding (if present in the last 24 hours) as spotting, light, medium, or heavy. […] The population age range was 18-49 years old. Women who completed six months of treatment and met eligibility criteria continued treatment in two blinded six-month extension studies, for a total treatment duration of up to 12 months. In the placebo-controlled and extension clinical studies, BMD was measured by DXA. Changes observed in BMD at other anatomical sites (femoral neck, total hip) were generally smaller than lumbar spine.

tumors in rat = assay: 2-year carcinogenicity study in rats; type: in vivo
Source text: The rat tumors were identified as being species-specific and of negligible relevance to humans. This conclusion is based on a follow-on thyroid and hepatic effects-related investigative study performed to document the possibility that thyroid and liver tumors may be specific to rat and occurred via induction of hepatic drug metabolizing enzymes at the high dose.

[6] = Ketoconazole 400 mg once daily, N 11
[7] = Rifampin 600 mg single dose, N 12

Compound: COc1cccc(-c2c(C)n(Cc3c(F)cccc3C(F)(F)F)c(=O)n(C[C@H](NCCCC(=O)O)c3ccccc3)c2=O)c1F [elagolix, 4-((R)-2-[5-(2-fluoro-3-methoxy-phenyl)-3-(2-fluoro-6-trifluoromethyl-benzyl)-4-methyl-2,6-dioxo-3,6-dihydro-2H-pyrimidin-1-yl]-1-phenyl-ethylamino)-butyric acid]
- AUC Ratio (co-administration vs. elagolix alone) [1, 6]: 2.20
- Cmax Ratio (co-administration vs. elagolix alone) [1, 6]: 1.77
- AUC Ratio (co-administration vs. elagolix alone) ([1]; Rifampin 600 mg once daily): 1.65
- Cmax Ratio (co-administration vs. elagolix alone) ([1]; Rifampin 600 mg once daily): 2.00
- AUC Ratio (co-administration vs. elagolix alone) [1, 7]: 5.58
- Cmax Ratio (co-administration vs. elagolix alone) [1, 7]: 4.37
- direction of the change in AUC of elagolix ([1]; co-administered with rifampin): ↑ elagolix
- Metabolism [2]: CYP3A (major) Minor
- effect on fertility ([3]; fertility study, 50, 150, 300 mg/kg/day): no effect
- ovary findings ([3]; repeat-dose study, 600, 800 mg/kg/day): involution and a decrease in corpora lutea in ovaries
- carcinogenicity: tumors (tumors in mouse): no increase in tumors
- substrate of OATP1B1 [4]: substrate
- endometrial biopsy findings post-baseline (hyperplasia or cancer) [5]: no abnormal biopsy findings
- Suicidal ideation (women with endometriosis; 150 mg Once Daily (N = 475)): 1 (0.2) N (%)
- Depressed Mood, depression, depressive symptoms and or tearfulness (women with endometriosis; 150 mg Once Daily (N = 475)): 13 (2.7) N (%)
- Mood altered, mood swings (women with endometriosis; 150 mg Once Daily (N = 475)): 25 (5.7) N (%)
- Numeric Rating Scale (NRS) scores of endometriosis pain (women with endometriosis; 150 mg QD and 200 mg BID vs placebo at Month 3 and Month 6, p<0.001): significant reduction
- percentage of days per month of the opioid or naproxen rescue medication use (women with endometriosis; 200 mg BID compared to placebo): significant reduction
- Suicidal ideation (women with endometriosis; 200 mg Twice Daily (N = 477)): 1 (0.2) N (%)
- Depressed Mood, depression, depressive symptoms and or tearfulness (women with endometriosis; 200 mg Twice Daily (N = 477)): 29 (6.1) N (%)
- Mood altered, mood swings (women with endometriosis; 200 mg Twice Daily (N = 477)): 25 (5.2) N (%)
- Completed Suicide (women with endometriosis; 150 mg Once Daily (N = 475)): 1 (0.2) N (%)
- Completed Suicide (women with endometriosis; 200 mg Twice Daily (N = 477)): 0 N (%)
- resumption of menses after stopping, % of women (women with endometriosis; after 6 months of 150 mg once daily, within 1 month): 59%
- resumption of menses after stopping, % of women (women with endometriosis; after 6 months of 150 mg once daily, within 2 months): 87%
- resumption of menses after stopping, % of women (women with endometriosis; after 6 months of 150 mg once daily, within 6 months): 95%
- resumption of menses after stopping, % of women (women with endometriosis; after 6 months of 200 mg twice daily, within 1 month): 60%
- resumption of menses after stopping, % of women (women with endometriosis; after 6 months of 200 mg twice daily, within 2 months): 88%
- resumption of menses after stopping, % of women (women with endometriosis; after 6 months of 200 mg twice daily, within 6 months): 97%
- resumption of menses after stopping, % of women (women with endometriosis; after 12 months of 150 mg once daily, within 1 month): 77%
- resumption of menses after stopping, % of women (women with endometriosis; after 12 months of 150 mg once daily, within 2 months): 95%
- resumption of menses after stopping, % of women (women with endometriosis; after 12 months of 150 mg once daily, within 6 months): 98%
- resumption of menses after stopping, % of women (women with endometriosis; after 12 months of 200 mg twice daily, within 1 month): 55%
- resumption of menses after stopping, % of women (women with endometriosis; after 12 months of 200 mg twice daily, within 2 months): 91%
- resumption of menses after stopping, % of women (women with endometriosis; after 12 months of 200 mg twice daily, within 6 months): 96%
- recovery of BMD at lumbar spine, total hip and femoral neck (women with endometriosis; both treatment groups, post-treatment months 6 and 12): progressive recovery of BMD
- patients with a Z-score below the normal lower bound of −2.0 (women with endometriosis; 150 mg daily dose): no patient
- patients with a Z-score below the normal lower bound of −2.0 (women with endometriosis; 200 mg BID): less than 1%
- percentage of days in which rescue opioid medication was taken (women with endometriosis; pooled analysis of two phase 3 trials, 150 QD and 200 BID vs placebo): significant reduction
- mean percent daily pill counts (rescue opioid) (women with endometriosis; pooled analysis, 200 mg BID vs placebo): significant reduction
- carcinogenicity: tumors (tumors in rat; 2-year, high dose, considered species-specific): increase in thyroid (male and female) and liver (males only) tumors
- margin of safety at the high dose (tumors in rat; both, in vivo, 2 years): 13 fold
